According to patent US20030176381A1, “Hyaluronic acid in the treatment of cancer” (priority 2002, published 2003):

What was measured:
[1] = system: rectal, gastric, breast, prostate and endometrial cancers; conditions: HA >750 mg/kg administered with various other therapeutic agents over various periods of time; cited from earlier work
[2] = system: B16F10 murine melanoma tumor; conditions: HA 1 mg/ml over 7 days by Alzet osmotic pump into the immediate vicinity of the tumor; cited from earlier work
[3] = system: B16F1 tumors; assay: Example 16: HA, CIS, 5-FU on B16F1 tumors in mice; assay type: in vivo, female C57BL/6 mice; conditions: vs Group 1 (saline); intravenously day 0 and at 3 day intervals for 4 weeks; HA 0.16-16.0 mg/kg, CIS 0.01-1.0 mg/kg or 5-FU 1.0-100.0 mg/kg
Procedure: Effect of saline, HA, CIS, 5-FU, HA+CIS and HA+5-FU on B16F1 tumors in mice 5 B16F1 cancer cells are implanted subcutaneously into 224 female C57BL/6 mice. The mice are divided into 28 groups of 8 mice (Table 16).
(§1) Saline, HA, CIS, 5-FU, HA+CIS and HA+5FU are administered intravenously in saline on day 0 and at 3 day intervals for 4 weeks (10 injections) at which time the mice are sacrificed and tumor mass and number of metastases are determined.

[4] = system: colon-26 cancer cells; conditions: HA alone; colon-26 cells express high levels of HA receptors; cited from earlier work
[5] = system: PC3 tumors; assay: Example 11: HA, M-DNA, MCC on PC3 tumors in mice; assay type: in vivo, male nude BALB/c mice; conditions: vs Group 1 (saline); intravenously day 0 and at 3-day intervals for 4 weeks; HA 0.16-16.0 mg/kg, M-DNA or MCC 0.02-2.0 mg/kg
Procedure: PC-3 human prostate cancer cells are implanted subcutaneously into 224 male nude BALB/c mice. The mice are divided into 28 groups of 8 mice (Table 11).
(§2) Saline, HA, M-DNA, MCC, HA+M-DNA and HA+MCC are administered intravenously on day 0 and at 3-day intervals for 4 weeks (10 injections) at which time the mice are sacrificed and tumor mass and number of metastases are determined.

[6] = system: LNCaP tumors (CD44 null); assay: Example 15: HA, CIS, 5-FU on LNCaP tumors in mice; assay type: in vivo, male nude BALB/c mice; conditions: vs Group 1 (saline); intravenously day 0 and at 3 day intervals for 4 weeks; HA 0.16-16.0 mg/kg, CIS or 5-FU 0.1-10.0 mg/kg
Procedure: Effect of saline, HA, CIS, 5-FU, HA+CIS andHA+5-FU on LNCaP tumors in mice LNCaP cancer cells (CD44 null) are implanted subcutaneously into 224 male nude BALB/c mice. The mice are divided into 28 groups of 8 mice (Tablel5).
Saline, HA, CIS, 5-FU, HA+CIS and HA+5FU are administered intravenously in saline on day 0 and at 3 day intervals-for 4 weeks-(1IOinjections) at which time the mice are sacrificed and tumor mass and number of metastasis are determined.

[7] = system: PC-3 human prostate cancer cells; assay: MTT cell proliferation, PC-3; assay type: cell-based; conditions: 48 h
Procedure: (§3) Cell proliferation was measured using dimethylthiazoldiphenyltetrazolium (MTT) reduction (Mosman et al. J. Immunol. Methods 65:55, 1983). Unless otherwise stated, 100 Al of 5 mg of MTT (Sigma-Aldrich, St. Louis, Mo., USA) dissolved in 1 ml of PBS was added into each well. After 4 h, medium was removed from each well, 1.0 ml of acid-isopropanol (0.04 N HCI in isopropanol) was added and reduced MTT was solubilized by mixing. Absorbency of the reaction product was measured at a wavelength of 570 nm using a multiplate spectrophotometer reader (Elx800 Model, Bio-TEK Instruments Inc., Winooski, Vt., USA).
(§4) Unless stated otherwise 1.0 x 10^5 cells/ml were seeded in 6-well flat-bottom tissue culture plates and were maintained for 48 h at 370 C in a 5% CO2 atmosphere.
(§5) PC-3, LNCAP and Du-145 human prostate cancer cells; MCF-7 human breast cancer cells; HT-1080 human fibrosarcoma cancer cells; B16F1 murine melanoma cells; and, UMUC-3, RT-4, HT-1376 and T-24 human bladder cancer cells were incubated with 0.8, 8.0 and 80 μg/ml of 5.0-7.5 x 10^5 Da HA (Table 2).
(§6) PC-3. LNCaP and Du-145 human prostate cancer cells were incubated with 8.0 jg/ml of 5.0-7.5 x 105 Da HA or of <1.5 x 10^4 Da HA (Table 3).
(§7) Unless stated otherwise 2.0 x 10^4 cells/ml were seeded in 24-well plates and were maintained for 48 h at 370 C in a 5% CO2 atmosphere. MTT was used at 50 μl per well.
(§8) T-24 human bladder cancer cells, PC-3 and Du-145 human prostate cancer cells, and MCF-7 human breast cancer cell were incubated with saline or with 80.0 jg/ml of 5.0-7.5 x 105 Da HA +1.0 μg/ml of M-DNA (Table 4).
(§9) CD44 expression and the inhibition of proliferation by 5.0-7.5 x 10^5 Da HA were measured using Jurkat T cell leukemia cells; MCF-7 human breast cancer cells; RT-4, T-24, HT-1376 and UMUC-3 human bladder cancer cells; and, PC-3, Du-145 and LNCaP prostate cancer cells (Table 8)

[8] = system: B16F1 tumors; assay: Example 13: HA, M-DNA, MCC on B16F1 tumors in mice; assay type: in vivo, female C57BL/6 mice; conditions: vs Group 1 (saline); intratumorally day 0 and at 3 day intervals for 4 weeks; HA 0.16-16.0 mg/kg, M-DNA or MCC 0.02-2.0 mg/kg
Procedure: Example 13 Effect of saline, HA, M-DNA, MCC, HA+M-DNA and HA +MCC on B16F1 tumors in mice B16F I cancer cells are implanted […] into 224 female C57BL/6 mice. The mice are divided into 28 groups of 8 mice (Table 13).
Saline, HA, M-DNA, MCC, HA+M-DNA and HA+MCC are administered intratumorally in saline on day 0 and at 3 day intervals for 4 weeks (10 injections) at which time the mice are sacrificed and tumor mass and number of metastases are determined.

[9] = system: LNCaP tumors (CD44 null); assay: Example 12: HA, M-DNA, MCC on LNCaP tumors in mice; assay type: in vivo, male nude BALB/c mice; conditions: vs Group 1 (saline); intravenously day 0 and at 3-day intervals for 4 weeks; HA 0.16-16.0 mg/kg, M-DNA or MCC 0.02-2.0 mg/kg
Procedure: Effect of saline, HA, M-DNA, MCC, HA+M-DNA and HA +MCC on LNCaP tumors in mice LNCaP human prostate cancer cells (CD44 null) are implanted subcutaneously into 224 male nude BALB/c mice. The mice are divided into 28 groups of 8 mice (Table 12).
as §2

[10] = system: LNCaP human prostate cancer cells; assay: MTT cell proliferation, LNCaP; assay type: cell-based; conditions: 48 h
Procedure: as §3, §4, §5, §6, §9

[11] = system: PC3 tumors; assay: Example 14: HA, CIS, 5-FU on PC3 tumors in mice; assay type: in vivo, male nude BALB/c mice; conditions: vs Group 1 (saline); intravenously day 0 and at 3 day intervals for 4 weeks; HA 0.16-16.0 mg/kg, CIS or 5-FU 0.1-10.0 mg/kg
Procedure: PC-3 cancer cells are implanted subcutaneously into 224 male nude BALB/c mice. The mice are divided into 28 groups of 8 mice (Table 14).
as §1

[12] = system: RT-4 human bladder cancer cells; assay: MTT cell proliferation, RT-4; assay type: cell-based
Procedure: Cell proliferation was measured using dimethylthiazoldiphenyltetrazolium (MTT) reduction (Mosman et al. J. Immunol. Methods 65:55, 1983). Unless otherwise stated, 100 Al of 5 mg of MTT (Sigma-Aldrich, St. Louis, Mo., USA) dissolved in 1 ml of PBS was added into each well. After 4 h, medium was removed from each well, 1.0 ml of acid-isopropanol (0.04 N HCI in isopropanol) was added and reduced MTT was solubilized by mixing. Absorbency of the reaction product was measured at a wavelength of 570 nm using a multiplate spectrophotometer reader (Elx800 Model, Bio-TEK Instruments Inc., Winooski, Vt., USA). […] PC-3, LNCAP and Du-145 human prostate cancer cells; MCF-7 human breast cancer cells; HT-1080 human fibrosarcoma cancer cells; B16F1 murine melanoma cells; and, UMUC-3, RT-4, HT-1376 and T-24 human bladder cancer cells were incubated with 0.8, 8.0 and 80 μg/ml of 5.0-7.5 x 10^5 Da HA (Table 2). […] MTT was used at 50 μl per well. HT-1376, RT-4 and T-24 human bladder cancer cells were incubated with 0.8 pg/ml of 5.0-7.5 x 10^5 Da HA +1.0 ug/ml of MCC (Table 5). […] MCF-7 human breast cancer cells; RT-4, T-24, HT-1376 and UMUC-3 human bladder cancer cells; and, PC-3, Du-145 and LNCaP prostate cancer cells (Table 8)

[13] = molecular target: CD44 cell surface HA receptor (human) (UniProt P16070); assay: flow cytometry, FITC-CD44 on RT-4 human bladder cancer cells (unstained cells: 4)
[14] = molecular target: CD44 cell surface HA receptor (human) (UniProt P16070); assay: flow cytometry, FITC-CD44 on HT-1376 human bladder cancer cells (unstained cells: 4)
[15] = molecular target: CD44 cell surface HA receptor (human) (UniProt P16070); assay: flow cytometry, FITC-CD44 on MCF-7 human breast cancer cells (unstained cells: 3)
[16] = molecular target: CD44 cell surface HA receptor (human) (UniProt P16070); assay: flow cytometry, FITC-CD44 on UMUC-3 human bladder cancer cells (unstained cells: 3)
[17] = molecular target: CD44 cell surface HA receptor (human) (UniProt P16070); assay: flow cytometry, FITC-CD44 on T-24 human bladder cancer cells (unstained cells: 3)
[18] = molecular target: CD44 cell surface HA receptor (human) (UniProt P16070); assay: flow cytometry, FITC-CD44 on PC-3 human prostate cancer cells (unstained cells: 6)
[19] = molecular target: CD44 cell surface HA receptor (human) (UniProt P16070); assay: flow cytometry, FITC-CD44 on Du-145 human prostate cancer cells (unstained cells: 3)
[20] = system: MCF-7 human breast cancer cells; assay: MTT cell proliferation, MCF-7; assay type: cell-based; conditions: MCF-7 (2.5 X 10^5 cells/ml); oligonucleotide 100 μg/ml alone (HA 0.0 μg/ml)
[21] = system: MCF-7 human breast cancer cells; assay: MTT cell proliferation, MCF-7; assay type: cell-based; conditions: Homo sapiens, MCF7, 5-FU at 10 μg/ml alone (saline instead of HA)
Procedure: as §3, §4, §5, §7, §8
MTT was used at 50 µl per well.
Example 8 s HA potentiation of the anti-neoplastic effect ofchemotherapeutic drugs RT-4 human bladder cancer cells and MCF-7 human breast cancer cells were incubated as in Example 6 with 0.0, 0.008 or 0.08 pg/ml of 5.0-7.5 x 10^5 Da HA +0.1 jg/ml of CIS, +1.0 jg/ml of 5-FU or +10 jig/ml of 5-FU (Table 7).
as §9

[22] = system: Du-145 human prostate cancer cells; assay: MTT cell proliferation, Du-145; assay type: cell-based; conditions: HA 8.0 μg/ml, 48 h
Procedure: as §3, §4, §5, §6, §7, §8, §9

Chain of UniProt P16070 (P16070 21-742): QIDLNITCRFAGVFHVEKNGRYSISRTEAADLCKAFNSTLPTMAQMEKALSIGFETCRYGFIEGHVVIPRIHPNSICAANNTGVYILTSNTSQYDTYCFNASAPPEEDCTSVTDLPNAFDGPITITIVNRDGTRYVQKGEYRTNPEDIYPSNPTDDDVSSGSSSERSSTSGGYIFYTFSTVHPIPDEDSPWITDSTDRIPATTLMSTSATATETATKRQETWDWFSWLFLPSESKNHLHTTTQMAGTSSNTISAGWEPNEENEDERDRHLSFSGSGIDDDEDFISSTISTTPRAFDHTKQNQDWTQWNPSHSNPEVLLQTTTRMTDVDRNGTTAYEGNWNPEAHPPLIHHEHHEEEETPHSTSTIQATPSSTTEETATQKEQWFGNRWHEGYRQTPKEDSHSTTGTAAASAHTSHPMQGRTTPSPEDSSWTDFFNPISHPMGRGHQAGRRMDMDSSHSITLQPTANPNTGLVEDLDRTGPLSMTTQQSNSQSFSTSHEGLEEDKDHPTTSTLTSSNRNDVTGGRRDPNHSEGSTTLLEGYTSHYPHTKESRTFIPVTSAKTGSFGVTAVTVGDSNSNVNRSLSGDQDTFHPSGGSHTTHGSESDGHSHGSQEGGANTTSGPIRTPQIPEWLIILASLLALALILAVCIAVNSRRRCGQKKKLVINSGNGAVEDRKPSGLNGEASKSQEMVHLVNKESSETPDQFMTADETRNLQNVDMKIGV

Molecule: Hyaluronic acid [HA]
- effect on cancers [1]: reduced or eliminated
- reduced tumor volume [2]: > 85%
- number of metastases [3]: fewer metastases
- tumor mass [3]: less tumor mass
- growth of cancer cells [4]: significantly inhibits the growth
- number of metastases [5]: fewer metastases
- tumor mass [5]: less tumor mass
- number of metastasis [6]: fewer metastases
- tumor mass [6]: less tumor mass
- % INHIBITION of cell proliferation ([7]; HA 80.0 μg/ml): 30%
- number of metastases [8]: fewer metastases
- tumor mass [8]: less tumor mass
- number of metastases [9]: fewer metastases
- tumor mass [9]: less tumor mass
- % INHIBITION of cell proliferation ([10]; HA 80.0 μg/ml): 26%
- number of metastases [11]: fewer metastases
- tumor mass [11]: less tumor mass

Molecule: N.N.[Cl][Pt][Cl] [CIS, cisplatin]
- number of metastases [3]: fewer metastases
- tumor mass [3]: less tumor mass
- number of metastasis [6]: fewer metastases
- tumor mass [6]: less tumor mass
- % INHIBITION of cell proliferation ([12]; CIS at 0.1 μg/ml alone (saline instead of HA)): 2%
- number of metastases [11]: fewer metastases
- tumor mass [11]: less tumor mass

Molecule: fluorescent anti-HA receptor monoclonal antibody FITC-CD44 (clone G44-26 (C26), Pharmingen)
- mean fluorescent units (mean fluorescent units) [13]: 60
- mean fluorescent units (mean fluorescent units) [14]: 200
- mean fluorescent units (mean fluorescent units) [15]: 70
- mean fluorescent units (mean fluorescent units) [16]: 1800
- mean fluorescent units (mean fluorescent units) [17]: 1800
- mean fluorescent units (mean fluorescent units) [18]: 400
- mean fluorescent units (mean fluorescent units) [19]: 450

Molecule: GG(GT)1GG: synthetic 6 base oligonucleotide
- % INHIBITION of cell proliferation [20]: 20%

Molecule: (G1T)13G: synthetic 27 base oligonucleotide (GTGTGTGTGTGTGTGTGTGTGTGTGTG; listed as DNA, chemistry not given here)
- % INHIBITION of cell proliferation [20]: 44%

Molecule: O=c1[nH]cc(F)c(=O)[nH]1 [5-FU, 5-fluorouracil]
- number of metastases [3]: fewer metastases
- tumor mass [3]: less tumor mass
- number of metastasis [6]: fewer metastases
- tumor mass [6]: less tumor mass
- inhibition at 1 µg/mL ([12]; Homo sapiens, 5-FU at 1.0 μg/ml alone (saline instead of HA)): 14%
- inhibition at 10 µg/mL [21]: 18%
- number of metastases [11]: fewer metastases
- tumor mass [11]: less tumor mass

Molecule: Hyaluronic acid [<1.5 × 10^4 Da HA]
- % INHIBITION of cell proliferation [22]: 37%
- % INHIBITION of cell proliferation ([7]; HA 8.0 μg/ml): 5%
- % INHIBITION of cell proliferation ([10]; HA 8.0 μg/ml): 24%
